Assay results as given in patent publication US20100029554A1, “Composition and Methods for Treatment of Congestive Heart Failure” (Amylin Pharmaceuticals, Inc., priority 2006, published 2010).
Where no end group is shown, it is not given here.

Assays:
[1] = biological target: T1, GLP-1 receptors (RINm5f cell membranes) (Rattus norvegicus, UniProt P32301); assay: Receptor binding assay, RBA GLP (RIN); details: [125I] human GLP-1 displacement
T1 construct: RINm5f cells expressing endogenous GLP-1 receptors; endogenous in cells; host or cells: RINm5f cell membranes
T1 sequence (P32301 22-463): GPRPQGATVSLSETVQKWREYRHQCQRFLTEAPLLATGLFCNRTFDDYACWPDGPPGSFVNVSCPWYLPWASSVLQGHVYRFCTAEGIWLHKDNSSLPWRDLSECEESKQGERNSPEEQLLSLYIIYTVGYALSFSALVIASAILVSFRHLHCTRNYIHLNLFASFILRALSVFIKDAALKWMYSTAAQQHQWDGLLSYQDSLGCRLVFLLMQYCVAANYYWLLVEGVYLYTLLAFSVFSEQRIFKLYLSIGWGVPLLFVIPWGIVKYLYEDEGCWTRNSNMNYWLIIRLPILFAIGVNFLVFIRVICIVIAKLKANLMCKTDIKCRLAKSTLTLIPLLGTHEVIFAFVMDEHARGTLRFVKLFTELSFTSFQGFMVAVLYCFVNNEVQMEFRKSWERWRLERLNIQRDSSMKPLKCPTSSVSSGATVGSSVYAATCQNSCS
Description: The well contents are harvested onto 96 well glass fiber plates using a Perkin Elmer plate harvestor. Dried glass fiber plates are combined with scintillant and counted on a Perkin Elmer scintillation counter.

NH/Swiss mice = assay: Glucose lowering assay; format: in vivo, mouse; details: IP
Procedure: Female NH/Swiss mice (˜8-20 weeks of age), (Harlan, Indianapolis, Ind., USA), housed 3 mice per cage, are allowed ad libitum access to food and water until the start of the experiment. At two hours prior to treatment, access to food is restricted.
At the time of treatment, the tip of the tail is pricked with a needle to obtain 1 μl blood as a “pre-treatment” control blood sample. Immediately thereafter, each mouse is injected intraperitoneally (IP) with a test sample (1 nmol/kg or 2 nmol/kg) or 200 μl vehicle (10% DMSO saline). Additional blood samples are collected at 30, 60, 120, 180, and 240 minutes after injection.
Blood glucose is measured with a glucose oxidase biosensor (OneTouch® Ultra® (LifeScan, Inc., a Johnson & Johnson Company, Milpitas, Calif.)). At each time point, the effect of the test sample is expressed as the percent change in blood glucose relative to mice injected with vehicle only. Test samples and vehicle controls are also compared to their respective “pre-treatment” controls.
Significant test sample effects are identified by ANOVA (p<0.05). Where a significant difference existed, test means are compared to the control mean with Dunnett's post test using GraphPad Prism version 4.00 for Windows, GraphPad Software, San Diego Calif. USA, www.graphpad.com).

NIH:Swiss mice = assay: Food intake assay; format: in vivo, mouse; details: IP, dose 10 nmol/kg
Procedure: All mice (NIH:Swiss mice) are housed in a stable environment of 22 (±2)° C., 60 (±10)% humidity and a 12:12 light:dark cycle; with lights on at 0300. Mice are housed in groups of three in standard cages with ad libitum access to food (Teklad: LM 485; Madison, Wis.) and water except as noted, for at least two weeks before the experiments.
All experiments are conducted between the hours of 0700 and 0900. The mice are food deprived (food removed at 1530 hr from all animals on day prior to experiment). […] The food pellet is weighed at 30-minute, 1-hr, and 2-hr intervals to determine the amount of food eaten.
Significant test sample effects are identified by ANOVA (p<0.05). Where a significicant difference exists, test means are compared to the control mean using Dunnett's test. One-way ANOVA with Dunnett's post test is performed using GraphPad Prism version 3.01 for Windows, GraphPad Software, San Diego Calif.

Plasma stability = format: in vitro ADME; details: 20 μg/mL in plasma, 37° C., 0-5 hours
How it was run: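 Quantification by LC-MS after MeOH quench (sample:MeOH 1:4) and centrifugation. Samples came from plasma spiked at 20 μg/mL and held at 37° C, taken at 0, 1, 2, 3, 4 and 5 h, each in triplicate.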

[2] = test system: GLP-1 cyclase, rat thyroid carcinoma cells (6-23); assay: GLP-1 Cyclase (6-23) assay; format: cell-based; details: cAMP, 6-23 cells; values marked **
Procedure: Five μl of serially diluted peptides are transferred to the 384-well assay plate. Rat thyroid carcinoma cells (6-23) are detached from a tissue culture flask with Versene and washed once in buffer. Then 6-23 cells are resusupended in buffer at 3.0×10^6 cells/ml. Then 10 μl cells (3.0×10^4 cells) are added to all wells of the assay plate and cells are stimulated at room temperature in the dark for 30 minutes. The reaction is terminated with 10 μl of lysis buffer and incubated at room temperature for 4 hrs in the dark. cAMP content is measured using Perkin Elmer AlphaScreen™ cAMP assay kit and results are read on a Perkin Elmer Fusion fluorometer. The assay is completed in 384-well plates at 25 μl volumes.

[3] = test system: GLP/GIP/CT cyclase, RIN-m5F cells; assay: GLP/GIP/CT Cyclase (RIN) assay; format: cell-based, rat; details: cAMP, values without **
How it was run: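 cAMP accumulation read by AlphaScreen after lysis (4 h, room temperature, dark). Peptide dilution series applied to 2.5×10^4 rat RIN-m5F insulinoma cells per well for 30 min at room temperature, protected from light.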

Row | Molecule | IC50 [1] [nM] | GLU LOWERING AUC240 @1 nmol/kg (NH/Swiss mice; 1 nmol/kg) [%] | FOOD INTAKE at 60 min (NIH:Swiss mice) [%] | plasma stability as compared to native GLP-1 (Plasma stability) | EC50 [2] [nM] | EC50 [3] [nM] | GLU LOWERING AUC240 @2 nmol/kg (NH/Swiss mice; 2 nmol/kg, change in blood glucose relative to vehicle) [%]
1 | CC[C@H](C)[C@H](NC(=O)[C@H](Cc1ccccc1)NC(=O)[C@H](CCC(=O)O)NC(=O)[C@H](CCCCN)NC(=O)[C@H](C)NC(=O)[C@H](C)NC(=O)[C@H](CCCCN)NC(=O)[C@H](CCC(=O)O)NC(=O)[C@H](CCC(=O)O)NC(=O)[C@H](CC(C)C)NC(=O)[C@H](CCC(N)=O)NC(=O)[C@H](CCCCN)NC(=O)[C@H](CO)NC(=O)[C@H](CC(C)C)NC(=O)[C@H](CC(=O)O)NC(=O)[C@H](CO)NC(=O)[C@@H](NC(=O)[C@H](Cc1ccccc1)NC(=O)[C@@H](NC(=O)CNC(=O)[C@H](CCC(=O)O)NC(=O)CNC(=O)[C@@H](N)Cc1c[nH]cn1)[C@@H](C)O)[C@@H](C)O)C(=O)N[C@@H](CCC(=O)O)C(=O)N[C@@H](Cc1c[nH]c2ccccc12)C(=O)N[C@@H](CC(C)C)C(=O)N[C@@H](CCCCN)C(=O)N[C@@H](CCC(N)=O)C(=O)NCC(=O)NCC(=O)N1CCC[C@H]1C(=O)N[C@@H](CO)C(=O)N[C@@H](CO)C(=O)NCC(=O)N[C@@H](C)C(=O)N1CCC[C@H]1C(=O)N1CCC[C@H]1C(=O)N1CCC[C@H]1C(=O)N[C@@H](CO)C(N)=O [Cmpd 5100] | 1.8 | −16 | −66 | increased plasma stability |  |  | 
2 | HGEGTFTSDLVKILEAEAVRKFIEFLKNGGPSSGAPPPS-NH2 [Cmpd 5529] |  |  |  |  | 0.388 |  | 
3 | CC[C@H](C)[C@H](NC(=O)[C@H](Cc1ccccc1)NC(=O)[C@H](CC(C)C)NC(=O)[C@H](CCCNC(=N)N)NC(=O)[C@@H](NC(=O)[C@H](C)NC(=O)[C@H](CCC(=O)O)NC(=O)[C@H](CCC(=O)O)NC(=O)[C@H](CCC(=O)O)NC(=O)[C@H](CC(C)C)NC(=O)[C@H](Cc1ccc(O)cc1)NC(=O)[C@H](CCC(=O)O)NC(=O)[C@@H](NC(=O)[C@@H](NC(=O)[C@H](CC(=O)O)NC(=O)[C@H](CC(N)=O)NC(=O)[C@@H](NC(=O)[C@H](Cc1ccc(O)cc1)NC(=O)[C@@H](NC(=O)CNC(=O)[C@H](CCC(=O)O)NC(=O)CNC(=O)[C@@H](N)Cc1c[nH]cn1)[C@@H](C)O)[C@@H](C)O)C(C)C)[C@@H](C)O)C(C)C)C(=O)N[C@@H](CCC(=O)O)C(=O)N[C@@H](Cc1c[nH]c2ccccc12)C(=O)N[C@@H](CC(C)C)C(=O)N[C@@H](CCCCN)C(=O)N[C@@H](CCC(N)=O)C(=O)NCC(=O)NCC(=O)N1CCC[C@H]1C(=O)N[C@@H](CO)C(=O)N[C@@H](CO)C(=O)NCC(=O)N[C@@H](C)C(=O)N1CCC[C@H]1C(=O)N1CCC[C@H]1C(=O)N1CCC[C@H]1C(=O)N[C@@H](CO)C(N)=O [Cmpd 5130] |  |  |  | increased plasma stability | 0.0544 | 0.89 | −22
